Where two headings read alike, the source gives them in different places. Values belong to the molecule of their own block, whether it stands above or below them.
Key:
[1] = molecular target: T1, recombinant human NUDT14 (Homo sapiens, UniProt O95848); assay: NUDT14 catalytic assay (AMP-Glo); type: biochemical
T1 sequence (O95848 1-222): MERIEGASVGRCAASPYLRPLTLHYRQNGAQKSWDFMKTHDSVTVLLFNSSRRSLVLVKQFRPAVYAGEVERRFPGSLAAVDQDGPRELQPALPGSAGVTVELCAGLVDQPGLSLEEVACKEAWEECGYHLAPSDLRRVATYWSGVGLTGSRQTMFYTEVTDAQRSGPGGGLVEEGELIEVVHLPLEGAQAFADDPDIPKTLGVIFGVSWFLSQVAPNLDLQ
Experimental: (§1) Inhibition activities of the compounds were determined using AMP-Glo system (Promega). The compounds were diluted from 50 μM to 0 μM in a final reaction containing 20 mM HEPES, 100 mM NaCl, 0.5 mM TCEP, 1 mM MgCl2, and 0.1% BSA, pH 7.4. […] The final DMSO concentration was 1% for all reactions. […] The reactions were further incubated with 4 μL of the detection solution for 1 h at rt. Luminescence signals were then measured in a PHERAstar FSX plate reader. Experiments were done in triplicate sets, and data were analyzed by GraphPad Prism 9. Inhibitor dose–response data were normalized to reactions containing vehicle only (1% v/v DMSO, 100% activity) and reactions containing 500 nM TH5427 (6) (1% v/v DMSO, 0% activity). Data are represented as the mean ± SD of two independent biological replicates.

[2] = molecular target: T2, NUDT5 (Homo sapiens, UniProt Q9UKK9); assay: NUDT5 catalytic assay (AMP-Glo); type: biochemical; settings: for NUDT5 inhibition: concentrations of up to 50 μM; for NUDT5 IC50: supplementary CSV
Experimental: as §1

[3] = test system: BT-474 cells; assay: Cell viability assay (CellTiter-Glo); type: cell-based; settings: Homo sapiens, 72 h of incubation
Experimental: BT-474 cells were cultivated in DMEM containing 10% FBS at 37 °C and 5% CO2. […] Cells were trypsinized, counted, and diluted to 25,000 cells/mL in culture medium. 40 μL of cell suspension was seeded to each well, and plates were sealed with a breathable film and incubated for 72 h. Cell viability was determined using the CellTiter-Glo reagent following the manufacturer’s instructions (Promega). Luminescence signals were measured in a PHERAstar FS or FSX and analyzed by GraphPad Prism (v.9 or v.10). Data were normalized to DMSO.

[4] = molecular target: NanoLuc-NUDT5 in HEK293 cells (Homo sapiens, UniProt Q9UKK9); assay: NUDT5 live-cell NanoBRET target engagement assay; type: cell-based; settings: 2.5 nM CBH-004 tracer, 2 h
Experimental: Donor and acceptor signals were measured in a PHERAstar FSX or FS plate reader and analyzed by GraphPad Prism (v.9 or v.10). […] Data were then normalized to DMSO.

[5] = molecular target: HiBiT-NUDT14 in intact HEK293 cells (Homo sapiens, UniProt O95848); assay: HiBiT-NUDT14 cellular thermal shift assay (CETSA); type: cell-based
Experimental: The Nano-Glo HiBiT lytic detection system was used following the manufacturer’s instructions (Promega). In brief, 400,000 HEK293 cells/mL were reverse-transfected with N-terminal HiBiT tagged NUDT14 using FuGENE transfection reagent (Promega). After 24 h of incubation, cells were trypsinized and resuspended at 400,000 cells/mL in assay medium. The cells were divided into compound and untreated (DMSO) groups and treated accordingly. Ten μL of cells were seeded into each well in a 384-well white PCR plate and incubated for 1 h. After incubation, the samples were heated in a PCR thermocycler at the desired temperature gradient. The plate was allowed to stand for 5 min at rt, and 10 μL of Nano-Glo HiBiT lytic mix was added into each well. The signals were measured in a PHERAstar FSX and analyzed by GraphPad Prism (v.9 or v.10).

[6] = molecular target: endogenous NUDT5 (Homo sapiens, UniProt Q9UKK9); assay: Affinity pull-down with Western blot for NUDT5; type: binding; settings: affinity matrix, cell lysate
Experimental: When reaching about 80% confluency, cells were harvested, washed with PBS, and frozen at −80 °C. Lysates were generated by adding 3× pellet volume of Buffer A (50 mM tris pH 7.5, 0.8% v/v NP-40, 5% v/v glycerol, 1.5 mM MgCl2, 100 mM NaCl, 25 mM NaF, 1 mM Na3VO4, 1 mM PMSF, 1 mM DTT, 10 μg/mL TLCK, 1 μg/mL Leupeptin, 1 μg/mL Aprotinin, 1 μg/mL soybean trypsin) supplemented with 1 μL/mL of benzonase. To facilitate lysis, crude lysate was drawn 10 times with a needle and incubated for 30 min on ice before clearing by centrifugation.
Affinity matrices were washed 4 times with 1 mL Buffer A, and proteins were eluted 2× with 50 μL of 2× Laemmli buffer containing 25 mM DTT in PBS for 5 min at 95 °C.

[7] = molecular target: T3, purified human NUDT14 protein (Homo sapiens, UniProt O95848); assay: biochemical
T3 construct: 6xHis tag followed by TEV site (N, cleaved yes); made in house; host or cells: Escherichia coli (DE3)
T3 sequence (O95848 1-222): T1 sequence (O95848 1-222)

[8] = molecular target: NUDT1 (Homo sapiens, UniProt P36639); assay: biochemical
[9] = molecular target: NUDT12 (Homo sapiens, UniProt Q9BQG2); assay: biochemical
Chain of NUDT12 (Q9BQG2 whole entry): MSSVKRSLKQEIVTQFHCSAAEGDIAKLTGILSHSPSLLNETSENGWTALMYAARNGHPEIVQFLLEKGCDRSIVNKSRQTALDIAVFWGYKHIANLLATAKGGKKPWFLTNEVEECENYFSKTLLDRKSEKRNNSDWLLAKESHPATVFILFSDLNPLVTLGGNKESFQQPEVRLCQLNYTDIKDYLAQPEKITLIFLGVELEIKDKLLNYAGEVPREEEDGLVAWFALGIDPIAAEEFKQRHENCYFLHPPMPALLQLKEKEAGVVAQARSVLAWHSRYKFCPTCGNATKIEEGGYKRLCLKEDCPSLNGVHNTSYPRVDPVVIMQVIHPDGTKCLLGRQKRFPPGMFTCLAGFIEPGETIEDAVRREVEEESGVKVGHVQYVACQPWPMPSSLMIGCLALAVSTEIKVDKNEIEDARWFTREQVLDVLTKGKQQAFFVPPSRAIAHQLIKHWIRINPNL

[10] = molecular target: T4, NUDT15 (Homo sapiens, UniProt Q9NV35); assay: biochemical
T4 sequence (Q9NV35 1-164): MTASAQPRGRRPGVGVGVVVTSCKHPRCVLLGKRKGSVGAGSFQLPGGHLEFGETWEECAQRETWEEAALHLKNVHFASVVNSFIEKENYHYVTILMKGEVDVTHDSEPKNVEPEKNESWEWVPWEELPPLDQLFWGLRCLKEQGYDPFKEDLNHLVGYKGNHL

[11] = molecular target: NUDT16 (Homo sapiens, UniProt Q96DE0); assay: biochemical
Chain of NUDT16 (Q96DE0 whole entry): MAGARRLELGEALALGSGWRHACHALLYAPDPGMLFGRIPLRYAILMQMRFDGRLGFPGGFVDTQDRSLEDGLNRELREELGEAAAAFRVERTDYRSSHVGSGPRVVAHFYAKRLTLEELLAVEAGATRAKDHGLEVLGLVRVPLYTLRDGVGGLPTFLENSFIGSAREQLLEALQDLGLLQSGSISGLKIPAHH

[12] = molecular target: NUDT16L1 (Homo sapiens, UniProt Q9BRJ7); assay: biochemical
Chain of NUDT16L1 (Q9BRJ7 whole entry): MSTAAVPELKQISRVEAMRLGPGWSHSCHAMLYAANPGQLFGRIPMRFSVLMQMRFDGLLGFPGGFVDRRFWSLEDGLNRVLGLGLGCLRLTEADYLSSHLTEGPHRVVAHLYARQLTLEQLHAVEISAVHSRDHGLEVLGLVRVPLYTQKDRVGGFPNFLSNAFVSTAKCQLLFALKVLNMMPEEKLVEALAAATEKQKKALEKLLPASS

[13] = molecular target: T5, NUDT17 (Homo sapiens, UniProt P0C025); assay: biochemical
T5 sequence (P0C025 1-328): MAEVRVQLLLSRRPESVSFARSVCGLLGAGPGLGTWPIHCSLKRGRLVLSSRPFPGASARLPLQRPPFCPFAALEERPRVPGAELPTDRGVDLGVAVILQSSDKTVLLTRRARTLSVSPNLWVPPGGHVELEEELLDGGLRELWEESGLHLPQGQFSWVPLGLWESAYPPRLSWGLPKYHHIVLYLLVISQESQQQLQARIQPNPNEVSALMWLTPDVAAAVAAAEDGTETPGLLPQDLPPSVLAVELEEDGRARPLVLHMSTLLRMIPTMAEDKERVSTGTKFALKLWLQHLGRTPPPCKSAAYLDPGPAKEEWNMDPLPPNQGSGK

[14] = molecular target: T6, NUDT18 (Homo sapiens, UniProt Q6ZVK8); assay: biochemical
T6 sequence (Q6ZVK8 1-323): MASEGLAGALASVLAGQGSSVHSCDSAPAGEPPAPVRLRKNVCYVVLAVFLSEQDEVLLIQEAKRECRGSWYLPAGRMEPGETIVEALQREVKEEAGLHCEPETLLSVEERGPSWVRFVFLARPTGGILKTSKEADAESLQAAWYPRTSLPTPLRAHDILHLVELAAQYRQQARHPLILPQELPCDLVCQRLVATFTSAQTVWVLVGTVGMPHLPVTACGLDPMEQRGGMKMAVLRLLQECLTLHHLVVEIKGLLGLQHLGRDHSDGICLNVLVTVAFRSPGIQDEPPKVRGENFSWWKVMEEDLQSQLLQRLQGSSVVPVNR

[15] = molecular target: NUDT7 (Homo sapiens, UniProt P0C024); assay: biochemical
Chain of NUDT7 (P0C024 whole entry): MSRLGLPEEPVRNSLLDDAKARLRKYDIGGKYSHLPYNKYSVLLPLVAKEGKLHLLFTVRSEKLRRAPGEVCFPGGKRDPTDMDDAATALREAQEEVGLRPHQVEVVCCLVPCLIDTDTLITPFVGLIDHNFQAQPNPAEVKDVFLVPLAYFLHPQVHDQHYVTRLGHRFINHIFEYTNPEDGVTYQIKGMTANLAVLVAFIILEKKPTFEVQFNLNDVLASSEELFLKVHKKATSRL

[16] = molecular target: T7, NUDT9 (Homo sapiens, UniProt Q9BW91); assay: biochemical
T7 sequence (Q9BW91 1-350): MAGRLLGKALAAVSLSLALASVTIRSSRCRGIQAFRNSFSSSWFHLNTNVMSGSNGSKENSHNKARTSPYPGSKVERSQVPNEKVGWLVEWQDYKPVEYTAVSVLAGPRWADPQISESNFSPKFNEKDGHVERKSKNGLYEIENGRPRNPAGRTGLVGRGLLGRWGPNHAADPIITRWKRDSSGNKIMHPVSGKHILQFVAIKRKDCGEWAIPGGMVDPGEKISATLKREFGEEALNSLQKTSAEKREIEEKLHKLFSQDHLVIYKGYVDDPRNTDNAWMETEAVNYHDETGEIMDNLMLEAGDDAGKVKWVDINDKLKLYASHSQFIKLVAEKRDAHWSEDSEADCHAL

[17] = molecular target: T2, NUDT5; assay: biochemical; set-up: 6xHis tag followed by TEV site (N, cleaved yes); made in house; host or cells: Escherichia coli (DE3)
[18] = molecular target: the molecule itself; assay: crystal structure; NUDT14 (20 mg/mL) cocrystallised with compound 9 at a molar ratio of 1:5; 0.2 M MgCl2, 0.1 M bis-tris pH 6.5, 25% PEG3350; sitting drop, 4 °C; dimer of chains A and B
[19] = 1 nM NUDT14, 10 μM ADPr, 1 h, rt
[20] = read-out: NUDT5 IC50, AMP-Glo, 1 nM NUDT5, 10 μM ADPr, 20 min, rt

Molecule: C=CC(=O)N1CCC[C@@H](n2nc(-c3ccc(Oc4ccccc4)cc3)c3c(N)ncnc32)C1 [Compound 1, ibrutinib, reference compound]
IC50 [2, 20]: 837 ± 329 nM
IC50 [1, 19]: 990 ± 110 nM
IC50 [3]: 27 ± 11 nM

Molecule: CC#CC(=O)N[C@H]1CCCN(c2c(F)cc(C(N)=O)c3[nH]c(C)c(C)c23)C1 [Compound 3, branebrutinib, reference compound]
NUDT5 inhibition [2]: did not show any inhibition
NUDT5 IC50 ([2]; AMP-Glo): not active

Molecule: Nc1ncnc2[nH]nc(-c3ccc(Oc4ccccc4)cc3)c12 [Compound 11, 3-(4-Phenoxyphenyl)-1H-pyrazolo[3,4-d]pyrimidin-4-amine]
IC50 [1, 19]: 519 ± 84 nM

Molecule: CC#CC(=O)N1CCC[C@H]1c1nc(-c2ccc(C(=O)Nc3ccccn3)cc2)c2c(N)nccn12 [Compound 2, acalabrutinib, reference compound]
NUDT5 inhibition [2]: did not show any inhibition
NUDT5 IC50 ([2]; AMP-Glo): not active

Molecule: C=CC(=O)N1CC=C(c2nn(C3CCN(C)CC3)c3ncnc(N)c23)CC1 [Compound 12, 1-(4-(4-Amino-1-(1-methylpiperidin-4-yl)-1H-pyrazolo[3,4-d]pyrimidin-3-yl)-3,6-dihydropyridin-1(2H)-yl)prop-2-en-1-one]
IC50 [2, 20]: > 50000 nM
NUDT5 IC50 ([2]; AMP-Glo): not active
IC50 [1, 19]: > 50000 nM
NUDT14 IC50 ([1]; supplementary CSV): not active

Molecule: Cn1c(=O)c2c(nc(N3CCN(CCCCN)CC3)n2Cc2nnc(-c3ccc(Cl)c(Cl)c3)o2)n(C)c1=O.O=C(O)C(F)(F)F [Compound 7, 4-(4-(7-((5-(3,4-Dichlorophenyl)-1,3,4-oxadiazol-2-yl)methyl)-1,3-dimethyl-2,6-dioxo-2,3,6,7-tetrahydro-1H-purin-8-yl)piperazin-1-yl)butan-1-aminium Trifluoroacetate]
binding to endogenous NUDT5 (pull-down, Western blot) [6]: retained binding

Molecule: C=CC(=O)N1CCC[C@@H](n2nc(-c3ccc(Oc4ccccc4)cc3)c3c(N)ncnc32)C1 [Compound 1, ibrutinib]
Kd [7]: 1900 ± 500 nM
Kd [8]: 3500 ± 280 nM
Kd [9]: > 100000 nM
Kd [10]: > 100000 nM
Kd [11]: > 100000 nM
Kd [12]: > 100000 nM
Kd [13]: > 100000 nM
Kd [14]: > 100000 nM
Kd [15]: > 100000 nM
Kd [16]: > 100000 nM
Kd [17]: 209 ± 62 nM

B1: NUDT14 (enzyme, human, UniProt O95848 1-222, looked up)
chain: T1 sequence (O95848 1-222)
stoichiometry N [18]: 2

Other lines, results leading:

IC50 [1, 19]: 263 ± 31 nM
Molecule: Cn1nc(-c2ccc(Oc3ccccc3)cc2)c2c(N)ncnc21 [Compound 10, 1-Methyl-3-(4-phenoxyphenyl)-1H-pyrazolo[3,4-d]pyrimidin-4-amine]

EC50 [4]: 4 ± 1 nM
NUDT14 stabilisation compared to DMSO [5]: does not stabilise NUDT14
Molecule: Cn1c(=O)c2c(nc(N3CCNCC3)n2Cc2nnc(-c3ccc(Cl)c(Cl)c3)o2)n(C)c1=O [Compound 6, TH5427]

IC50 [2]: > 50000 nM
NUDT5 IC50 ([2]; AMP-Glo): not active
IC50 [1, 19]: 3720 ± 190 nM
Molecule: C=CC(=O)N1CCC=C(c2nn(C3CCN(C)CC3)c3ncnc(N)c23)C1 [Compound 13, 1-(5-(4-Amino-1-(1-methylpiperidin-4-yl)-1H-pyrazolo[3,4-d]pyrimidin-3-yl)-3,6-dihydropyridin-1(2H)-yl)prop-2-en-1-one]

IC50 [2]: > 50000 nM
NUDT5 IC50 ([2]; AMP-Glo): not active
IC50 [1, 19]: > 50000 nM
NUDT14 IC50 [1, 19]: inactive
Molecule: C=CC(=O)N1CCC(c2nn(C3CCN(C)CC3)c3ncnc(N)c23)CC1 [Compound 15, 1-(4-(4-Amino-1-(1-methylpiperidin-4-yl)-1H-pyrazolo[3,4-d]pyrimidin-3-yl)piperidin-1-yl)prop-2-en-1-one]

IC50 [1, 19]: 1640 ± 140 nM
Molecule: C=CC(=O)NCc1ccc(-c2nn(C3CCN(C)CC3)c3ncnc(N)c23)cc1 [Compound 14, N-(4-(4-Amino-1-(1-methylpiperidin-4-yl)-1H-pyrazolo[3,4-d]pyrimidin-3-yl)benzyl)acrylamide]

Reference: PMC11089510 (Journal of Medicinal Chemistry, 2024)
